The source made the active and inactive calls.
Legend:
[1] = system: HEK293; experiment: cells; conditions: Homo sapiens
[2] = system: HEK293; experiment: cells; conditions: Homo sapiens; remark: listed apart in the source
[3] = inhibitors of intracellular T. cruzi replication, confirmation, NIH3T3 host cells, beta-gal luminescence (AID 2044); type: functional, cell-based;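 further: intracellular parasites grown in NIH/3T3 mouse fibroblasts as host cells; luminescent beta-galactosidase reporter signal from transgenic T. cruzi replicating inside host cells; inhibitors lower the luminescence signal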
[4] = cytotoxicity toward NIH3T3 fibroblasts, dose response, counter-screen, cell-based, ATP luminescence, mouse fibroblasts (AID 2010); type: functional;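 further: cells exposed to compound for about 90 hours before reading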
[5] = biological target: T1, Exodeoxyribonuclease V (Escherichia coli (strain K12), UniProt P04993+P07648+P08394); experiment: E. coli RecBCD inhibitors, dose response, counter-screen for AddAB inhibitor project, absorbance, V66 E. coli, mutant T4 phage (AID 492957); type: functional, cell-based, Escherichia coli str. K-12 substr. MG1655
T1 sequence (P04993 whole entry): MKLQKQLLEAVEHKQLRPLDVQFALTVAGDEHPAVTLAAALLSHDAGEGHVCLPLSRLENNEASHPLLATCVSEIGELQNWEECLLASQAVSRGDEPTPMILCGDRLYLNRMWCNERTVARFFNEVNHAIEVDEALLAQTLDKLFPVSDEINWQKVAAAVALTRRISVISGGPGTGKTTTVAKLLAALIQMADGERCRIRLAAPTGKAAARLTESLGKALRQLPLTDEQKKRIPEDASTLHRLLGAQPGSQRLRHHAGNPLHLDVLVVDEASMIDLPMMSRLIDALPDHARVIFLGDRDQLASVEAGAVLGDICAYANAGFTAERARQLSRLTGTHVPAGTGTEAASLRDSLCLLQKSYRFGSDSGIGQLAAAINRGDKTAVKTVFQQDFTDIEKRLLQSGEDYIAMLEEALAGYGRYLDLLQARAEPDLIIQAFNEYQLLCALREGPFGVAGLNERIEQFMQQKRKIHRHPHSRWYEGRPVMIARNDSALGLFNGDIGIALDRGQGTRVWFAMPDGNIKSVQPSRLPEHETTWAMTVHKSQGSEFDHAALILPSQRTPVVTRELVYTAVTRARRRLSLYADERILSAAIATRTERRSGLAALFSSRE
T1 sequence (P07648 whole entry): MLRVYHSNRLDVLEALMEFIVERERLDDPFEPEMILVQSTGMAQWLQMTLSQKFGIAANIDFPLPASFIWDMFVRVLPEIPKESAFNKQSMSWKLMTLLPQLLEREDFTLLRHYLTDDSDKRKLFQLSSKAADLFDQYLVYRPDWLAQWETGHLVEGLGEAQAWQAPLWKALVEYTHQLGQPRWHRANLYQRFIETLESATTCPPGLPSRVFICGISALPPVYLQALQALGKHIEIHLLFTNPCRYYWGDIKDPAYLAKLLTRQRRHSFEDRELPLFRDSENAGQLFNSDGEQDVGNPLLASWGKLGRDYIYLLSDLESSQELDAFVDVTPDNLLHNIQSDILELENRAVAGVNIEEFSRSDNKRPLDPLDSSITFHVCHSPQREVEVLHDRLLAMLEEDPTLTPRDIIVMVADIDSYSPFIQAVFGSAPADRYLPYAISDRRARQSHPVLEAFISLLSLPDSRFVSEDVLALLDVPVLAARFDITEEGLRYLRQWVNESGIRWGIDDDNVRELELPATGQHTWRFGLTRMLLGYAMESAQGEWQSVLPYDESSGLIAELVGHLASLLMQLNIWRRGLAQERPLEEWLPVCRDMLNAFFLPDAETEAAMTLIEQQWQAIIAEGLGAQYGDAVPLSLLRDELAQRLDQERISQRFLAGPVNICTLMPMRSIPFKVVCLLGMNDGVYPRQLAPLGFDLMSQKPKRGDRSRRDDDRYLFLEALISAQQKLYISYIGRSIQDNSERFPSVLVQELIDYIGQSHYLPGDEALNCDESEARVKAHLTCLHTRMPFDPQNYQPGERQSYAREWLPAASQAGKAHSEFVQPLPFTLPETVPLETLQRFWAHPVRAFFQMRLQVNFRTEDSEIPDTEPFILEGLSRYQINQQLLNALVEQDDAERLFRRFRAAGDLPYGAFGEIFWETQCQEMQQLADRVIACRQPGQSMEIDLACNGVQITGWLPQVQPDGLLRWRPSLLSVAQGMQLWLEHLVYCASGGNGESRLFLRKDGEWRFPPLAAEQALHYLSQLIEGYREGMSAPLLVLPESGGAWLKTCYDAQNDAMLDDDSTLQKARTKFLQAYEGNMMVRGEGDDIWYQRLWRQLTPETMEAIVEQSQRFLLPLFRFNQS
T1 sequence (P08394 whole entry): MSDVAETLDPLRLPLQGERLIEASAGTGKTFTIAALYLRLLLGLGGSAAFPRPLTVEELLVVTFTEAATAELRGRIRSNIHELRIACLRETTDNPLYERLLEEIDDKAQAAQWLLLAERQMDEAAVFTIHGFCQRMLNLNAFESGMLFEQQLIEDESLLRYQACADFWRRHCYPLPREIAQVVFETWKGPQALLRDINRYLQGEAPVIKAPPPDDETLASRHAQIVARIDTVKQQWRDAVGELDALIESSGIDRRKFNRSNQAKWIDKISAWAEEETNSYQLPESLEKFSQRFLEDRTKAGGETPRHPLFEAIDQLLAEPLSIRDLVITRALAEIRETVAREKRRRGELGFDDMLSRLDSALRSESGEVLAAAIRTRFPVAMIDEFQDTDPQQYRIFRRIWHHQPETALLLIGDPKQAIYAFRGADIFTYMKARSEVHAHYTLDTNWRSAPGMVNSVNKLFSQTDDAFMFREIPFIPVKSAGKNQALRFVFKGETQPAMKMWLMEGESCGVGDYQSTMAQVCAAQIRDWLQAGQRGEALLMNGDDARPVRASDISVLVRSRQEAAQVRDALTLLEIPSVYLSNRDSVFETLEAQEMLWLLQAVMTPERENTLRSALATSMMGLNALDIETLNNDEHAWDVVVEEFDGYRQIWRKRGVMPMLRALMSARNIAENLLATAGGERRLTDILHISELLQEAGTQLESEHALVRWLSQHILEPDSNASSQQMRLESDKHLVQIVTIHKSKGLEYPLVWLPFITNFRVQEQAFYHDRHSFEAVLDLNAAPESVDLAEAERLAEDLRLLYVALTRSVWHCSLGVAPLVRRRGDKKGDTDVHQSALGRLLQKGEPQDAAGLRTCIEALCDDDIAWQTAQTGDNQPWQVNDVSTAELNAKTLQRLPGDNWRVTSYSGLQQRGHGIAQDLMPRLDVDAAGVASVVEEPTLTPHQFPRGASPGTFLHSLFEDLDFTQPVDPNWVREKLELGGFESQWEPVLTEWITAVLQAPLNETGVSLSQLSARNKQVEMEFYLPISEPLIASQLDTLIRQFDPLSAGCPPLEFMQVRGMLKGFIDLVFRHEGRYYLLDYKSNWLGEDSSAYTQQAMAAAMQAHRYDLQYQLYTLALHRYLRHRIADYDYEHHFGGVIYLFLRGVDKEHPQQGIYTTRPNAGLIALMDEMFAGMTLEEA

[6] = THP-1 cell cytotoxicity, dose response, cytotoxicity control for non-replicating M. tuberculosis project (AID 489025); type: functional
[7] = Vero E6 cell cytotoxicity, dose response, cytotoxicity control for non-replicating M. tuberculosis project, secondary assay (AID 492998); type: functional, VeroE6; conditions: Vero C1008
[8] = Counterscreen for AddAB inhibitors: absorbance-based bacterial cell-based high throughput dose response assay for inhibitors of bacterial viability. [Related pubchem assays (depositor defined):AID435030, AID449728, AID449731, AID488942, AID488955, AID488956]; type: functional
[9] = cells; type: functional
[10] = biological target: Cytochrome P450 2C19 (Homo sapiens, UniProt P33261); experiment: Cytochrome panel assay with activity outcomes. Panel member name: p450-cyp2c19 Compounds with AC50 equal or less than 10 uM are considered active; type: functional; conditions: read-out: AC50
[11] = biological target: Cytochrome P450 2C9 (Homo sapiens, UniProt P11712)
[12] = biological target: Cytochrome P450 3A4 (Homo sapiens, UniProt P08684);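 further: CYP3A4 tested as one member of a cytochrome P450 panel screen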
[13] = Luminescence Cell-Based Dose Retest to Confirm Inhibitors of Cancer Stem Cells. [Related pubchem assays (depositor defined):AID2717, AID2721]; type: functional; conditions: Homo sapiens
[14] = NIH-3T3 fibroblast cytotoxicity, dose response, cytotoxicity control, cell-based, fluorescence, Alamar Blue, secondary assay (AID 2327); type: functional;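 further: NIH-3T3 mouse fibroblasts cultured with fluconazole at 8 µg/mL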
[15] = C. albicans growth with fluconazole, confirmation, fluorescence, retest (AID 2467); type: functional, cell-based
[16] = system: CHO; experiment: cytotoxicity in TLR9-MyD88 CHO cells, dose response, cytotoxicity control for TLR9-MyD88 binding inhibitor project, cell-based, luminescence (AID 588339); type: functional, hamster; conditions: Cricetulus griseus;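 further: CHO cells stably coexpressing TLR9 and MyD88 fusions from primary screen; compound exposure lasted 48 hours before viability readout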
[17] = biological target: Beta Lactamase (Pseudomonas aeruginosa, UniProt Q932Y6); experiment: beta-lactamase reporter inhibitor potency, dose response, artefact control for TLR9-MyD88 binding inhibitor project, BLA reporter cells, FRET fluorescence (AID 588341); type: cell-based;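 further: cell based assay in CHO-K1 cells stably expressing beta-lactamase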
Chain of Beta Lactamase (Q932Y6 whole entry): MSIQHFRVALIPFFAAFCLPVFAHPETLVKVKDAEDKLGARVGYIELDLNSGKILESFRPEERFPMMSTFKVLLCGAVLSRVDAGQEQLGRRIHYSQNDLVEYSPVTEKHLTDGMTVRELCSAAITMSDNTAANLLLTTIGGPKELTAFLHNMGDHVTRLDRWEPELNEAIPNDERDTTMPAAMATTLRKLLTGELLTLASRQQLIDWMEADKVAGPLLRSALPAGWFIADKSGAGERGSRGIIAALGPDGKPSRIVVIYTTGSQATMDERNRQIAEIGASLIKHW

Chain of Cytochrome P450 2C9 (P11712 whole entry): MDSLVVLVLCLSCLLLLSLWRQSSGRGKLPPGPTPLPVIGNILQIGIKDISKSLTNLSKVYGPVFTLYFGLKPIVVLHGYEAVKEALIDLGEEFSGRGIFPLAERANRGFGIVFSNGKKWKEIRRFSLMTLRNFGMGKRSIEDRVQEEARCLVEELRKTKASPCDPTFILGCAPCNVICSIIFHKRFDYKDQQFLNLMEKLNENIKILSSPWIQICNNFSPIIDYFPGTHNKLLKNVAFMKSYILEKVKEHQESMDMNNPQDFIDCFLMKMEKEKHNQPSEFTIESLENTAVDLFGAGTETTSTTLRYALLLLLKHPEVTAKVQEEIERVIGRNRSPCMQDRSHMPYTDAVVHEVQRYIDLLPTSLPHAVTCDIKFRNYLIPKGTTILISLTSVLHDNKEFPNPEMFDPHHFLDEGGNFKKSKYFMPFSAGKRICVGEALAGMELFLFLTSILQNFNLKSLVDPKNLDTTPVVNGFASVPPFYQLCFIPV
Chain of Cytochrome P450 3A4 (P08684 whole entry): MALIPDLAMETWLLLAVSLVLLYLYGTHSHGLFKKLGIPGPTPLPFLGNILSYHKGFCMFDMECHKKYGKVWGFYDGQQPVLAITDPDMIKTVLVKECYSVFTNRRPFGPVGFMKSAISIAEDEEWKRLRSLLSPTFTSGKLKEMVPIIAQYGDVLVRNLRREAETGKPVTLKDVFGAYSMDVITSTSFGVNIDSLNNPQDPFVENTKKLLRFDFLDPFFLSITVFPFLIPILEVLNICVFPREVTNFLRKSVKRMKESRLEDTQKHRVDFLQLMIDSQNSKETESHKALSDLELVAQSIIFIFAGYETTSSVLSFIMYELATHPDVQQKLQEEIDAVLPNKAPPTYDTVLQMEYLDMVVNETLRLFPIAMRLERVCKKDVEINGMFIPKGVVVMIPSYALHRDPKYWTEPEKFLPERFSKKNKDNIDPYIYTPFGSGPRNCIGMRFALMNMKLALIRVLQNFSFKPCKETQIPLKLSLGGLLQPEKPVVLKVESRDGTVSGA
Chain of Cytochrome P450 2C19 (P33261 whole entry): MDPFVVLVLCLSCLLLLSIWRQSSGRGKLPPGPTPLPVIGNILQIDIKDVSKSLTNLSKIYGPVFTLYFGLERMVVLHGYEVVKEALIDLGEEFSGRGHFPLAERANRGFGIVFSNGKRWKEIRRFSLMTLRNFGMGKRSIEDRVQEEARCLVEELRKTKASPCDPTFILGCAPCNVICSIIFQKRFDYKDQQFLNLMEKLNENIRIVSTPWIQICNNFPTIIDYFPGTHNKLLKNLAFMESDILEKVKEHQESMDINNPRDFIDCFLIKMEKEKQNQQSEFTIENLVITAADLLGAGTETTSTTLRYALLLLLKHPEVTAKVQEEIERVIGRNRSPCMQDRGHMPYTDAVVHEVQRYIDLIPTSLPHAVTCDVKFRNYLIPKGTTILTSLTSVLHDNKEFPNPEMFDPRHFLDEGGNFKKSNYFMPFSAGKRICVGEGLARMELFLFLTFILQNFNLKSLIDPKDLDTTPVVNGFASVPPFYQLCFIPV

**Q.** For `COc1ccccc1-c1ccc2c(c1)C(C)(Cc1cccc(C#N)c1)C(=O)N2` (stereo unspecified), which EC50 [1] is on record?
**A.** Its EC50 is > 59.6 µM (inactive).

**Q.** And the EC50 [2]?
**A.** Its EC50 is > 59.6 µM (inactive).

**Q.** Which EC50 [1] does the source give for `COc1ccc(CN2CCC2(C)C(=O)Nc2cccc(NS(C)(=O)=O)c2)c2ccccc12` (stereo unspecified) here?
**A.** The EC50 was > 59.7 µM (inactive).

**Q.** What about the EC50 [2] of the same compound?
**A.** Its EC50 is > 59.7 µM (inactive).

**Q.** With `CCCn1c(NC(=O)c2ccc([N+](=O)[O-])o2)nc2ccccc21` as the compound, how does the EC50 [3] read?
**A.** The EC50 was 0.128 µM (active).

**Q.** What about the EC50 [4] of the same compound?
**A.** Its EC50 is > 30 µM (not active).

**Q.** And the IC50 [5]?
**A.** The IC50 was > 118 µM (inactive).

**Q.** What about the CC50 [6] of the same compound?
**A.** The CC50 was 17.1 µM (active).

**Q.** What about the CC50 [7] of the same compound?
**A.** Its CC50 is 13.3 µM (active).

**Q.** What about the IC50 [8] of the same compound?
**A.** Its IC50 is > 118 µM (inactive).

**Q.** And the IC50 [9]?
**A.** The IC50 was 1.51 µM (active).

**Q.** For `O=C(Cc1ccccc1)Nc1nc(=O)c2ccccc2s1`, which AC50 [10] is on record?
**A.** Its AC50 is 2.82 µM (inconclusive).

**Q.** What about the AC50 [11] of the same compound?
**A.** The AC50 was 3.55 µM (inconclusive).

**Q.** And the AC50 [12]?
**A.** The AC50 was “inconclusive”.

**Q.** Which AC50 [13] does the source give for `Cc1ccsc1/C=C/c1ccc2cccc(O)c2n1` here?
**A.** Its AC50 is 6.83 µM (active).

**Q.** And the EC50 [1]?
**A.** The EC50 was > 59.7 µM (inactive).

**Q.** What about the EC50 [2] of the same compound?
**A.** Its EC50 is > 59.7 µM (inactive).

**Q.** Which EC50 [14] does the source give for `C/C(=N\Nc1ccc([N+](=O)[O-])cc1)c1ccc2c(c1)OCO2` here?
**A.** Its EC50 is > 150 µM (inactive).

**Q.** And the EC50 [15]?
**A.** Its EC50 is > 38 µM (not active).

**Q.** What about the IC50 [16] of the same compound?
**A.** The IC50 was > 49.7 µM (inactive).

**Q.** What about the IC50 [17] of the same compound?
**A.** Its IC50 is 12.5 µM (inactive).
